Where “and” joins values, the source holds several entries; their conditions need not be identical. Equal values may be shown once.
Experiments:
[1] = test system: M. tuberculosis; format: cell-based, Mycobacterium tuberculosis; details: 10x MIC
[2] = test system: M. tuberculosis H37Rv mutants with MmpL3 mutations; format: cell-based, Mycobacterium tuberculosis

**Q.** How did the “frequency of spontaneous resistant mutant generation” value [1] turn out when CCc1ccc([C@H]2C[C@@H](C(F)(F)F)n3ncc(C(=O)NCc4ccc(OC)cc4)c3N2)cc1 [Compound 1, (5R,7S)-5-(4-ethylphenyl)-N-(4-methoxybenzyl)-7-(trifluoromethyl)-4,5,6,7-tetrahydropyrazolo[1,5-a]pyrimidine-3-carboxamide] was run?
**A.** The value was 6.4×10^−8 mutant/cfus.

**Q.** c1cc2c(s1)CCOC21CCN(Cc2ccc3c(c2)OCCO3)CC1 [Compound 2] was tested. Which “frequency of spontaneous resistant mutant generation” value [1] did it give?
**A.** Its value is 3.6×10^−8 mutant/cfus.

**Q.** Which results are given for CC[C@@H](CO)NCCN[C@@H](CC)CO [Ethambutol]?
**A.** Ratio MICmut/MICwt [2]: 0.5 and 1.0 and 0.8; susceptibility of all isolated mutants to classic antitubercular drugs [2]: susceptible

**Q.** What does the source list for CC(=O)NC[C@H]1CN(c2ccc(N3CCOCC3)c(F)c2)C(=O)O1 [Linezolid]?
**A.** Ratio MICmut/MICwt [2]: 0.5 and 1.0; susceptibility of all isolated mutants to classic antitubercular drugs [2]: susceptible

**Q.** COc1c(N2C[C@@H]3CCCN[C@@H]3C2)c(F)cc2c(=O)c(C(=O)O)cn(C3CC3)c12 [Moxifloxacin] was tested. Which “Ratio MICmut/MICwt” value [2] did it give?
**A.** Its value is 1.0 and 0.5.

**Q.** What about the “susceptibility of all isolated mutants to classic antitubercular drugs” value [2] of the same molecule?
**A.** The value was “susceptible”.

Source: publication PMC3629081, “Tetrahydropyrazolo[1,5-a]Pyrimidine-3-Carboxamide and N-Benzyl-6′,7′-Dihydrospiro[Piperidine-4,4′-Thieno[3,2-c]Pyran] Analogues with Bactericidal Efficacy against Mycobacterium tuberculosis Targeting MmpL3” (PLoS ONE, 2013)
